How the values were obtained:
Assay in all cases: Steady-state kinetic constants, bioluminescence activity
[1] = tested on: PpyLit (chimeric luciferase, SEQ ID NO: 8) variant S284T/F465R; type: biochemical, Photinus pyralis / Luciola italica
Protocol: (§1) Reactions were initiated by injection of solutions of the substrate being maintained at saturating concentration. Kinetic constants were determined using a nonlinear least squares method of the Enzyme Kinetics Pro software (SynTex), which fits data from the Michalis-Menten equation to a rectangular hyperbola. The corresponding kcat values were obtained by dividing the Vmax values by the amount (μmol) of each luciferase in the assay mixtures.

[2] = tested on: PpyLit (chimeric luciferase, SEQ ID NO: 8) variant S284T/I351V/E354K; type: biochemical, Photinus pyralis / Luciola italica
Protocol: as §1

[3] = tested on: PpyLit (chimeric luciferase, SEQ ID NO: 8) variant I351V/E354K/F465R; type: biochemical, Photinus pyralis / Luciola italica
Protocol: as §1

[4] = tested on: PpyLit (chimeric luciferase, SEQ ID NO: 8) variant I351V/E354K; type: biochemical, Photinus pyralis / Luciola italica
Protocol: as §1

[5] = tested on: Ppy GR-TSLit, chimeric luciferase of Ppy GR-TS N-domain and LitWT C-domain; type: biochemical, Photinus pyralis / Luciola italica
Protocol: as §1

[6] = tested on: PpyLit, chimeric luciferase of PpyWT residues 1-439 and LitWT residues 440-550, SEQ ID NO: 8; type: biochemical, Photinus pyralis / Luciola italica
Protocol: as §1

[7] = tested on: PpyLit (chimeric luciferase, SEQ ID NO: 8) variant I232A/E354K; type: biochemical, Photinus pyralis / Luciola italica
Protocol: as §1

[8] = tested on: PpyLit (chimeric luciferase, SEQ ID NO: 8) variant S284T; type: biochemical, Photinus pyralis / Luciola italica
Protocol: as §1

[9] = tested on: PpyLit (chimeric luciferase, SEQ ID NO: 8) variant I232A/I351V/E354K; type: biochemical, Photinus pyralis / Luciola italica
Protocol: as §1

[10] = tested on: Ppy RE-TSLit, chimeric luciferase of Ppy RE-TS N-domain and LitWT C-domain; type: biochemical, Photinus pyralis / Luciola italica
Protocol: as §1

[11] = tested on: PpyLit (chimeric luciferase, SEQ ID NO: 8) variant F465R; type: biochemical, Photinus pyralis / Luciola italica
Protocol: as §1

[12] = tested on: LitPpy, chimeric luciferase of LitWT residues 1-439 and PpyWT residues 440-550; type: biochemical, Luciola italica / Photinus pyralis
Protocol: as §1

[13] = biological target: T1, Photinus pyralis luciferase variant Ppy GR-TS (Photinus pyralis, UniProt P08659, A215L/E354K/F250S/F295L/G246A/I232A/T214A/V241I); type: biochemical
T1 construct: N-terminal GPLGS; pGEX-6P-2 GST fusion (tag cleaved), E. coli BL21

[14] = biological target: T2, Photinus pyralis luciferase variant Ppy RE13, Ppy RE9 (SEQ ID NO: 20) with Ile457Val/Arg465Phe/Ala482Gly/His489Lys/Ala503Asn/Lys543Gln, SEQ ID NO: 16 (Photinus pyralis, UniProt P08659, A215L/A482G/A503N/E354I/F295L/H489K/I232A/I351V/I457V/K543Q/R330G/S284T/T214A); type: biochemical
T2 construct: N-terminal GPLGS; pGEX-6P-2 GST fusion (tag cleaved), E. coli BL21

[15] = biological target: T3, Photinus pyralis luciferase PpyWT variant Ppy19, Ppy14 plus Leu530Ile/Lys534Val/Ile540Lys/Ala542Pro/Lys543Gln (Photinus pyralis, UniProt P08659, A450P/A482G/A503N/A509H/A542P/D475S/D476E/H489K/I457V/I540K/K511R/K534V/K543Q/L472V/L487M/L530I/T507V/T508N/V517R); type: biochemical
T3 construct: N-terminal GPLGS; pGEX-6P-2 GST fusion (tag cleaved), E. coli BL21

[16] = biological target: Photinus pyralis luciferase, recombinant wild type (PpyWT), SEQ ID NO: 4, with N-terminal peptide GPLGS (Photinus pyralis, UniProt P08659); type: biochemical
[17] = biological target: T4, Photinus pyralis luciferase variant Ppy RE-TS5/I351V, PpyRE-TS (SEQ ID NO: 24) with Ile457Val/Ala482Gly/His489Lys/Ala503Asn/Lys543Gln/Ile351Val, SEQ ID NO: 14 (Photinus pyralis, UniProt P08659, A215L/A482G/A503N/E354K/F295L/H489K/I232A/I351V/I457V/K543Q/S284T/T214A); type: biochemical
T4 construct: N-terminal GPLGS; pGEX-6P-2 GST fusion (tag cleaved), E. coli BL21

[18] = biological target: T5, Photinus pyralis luciferase PpyWT variant Ppy5, Ile457Val/Ala482Gly/His489Lys/Ala503Asn/Lys543Gln, SEQ ID NO: 10 (Photinus pyralis, UniProt P08659, A482G/A503N/H489K/I457V/K543Q); type: biochemical
T5 construct: pGEX-6P-2 GST fusion (tag cleaved), E. coli BL21

[19] = biological target: T6, Native Ppy, native firefly luciferase from Photinus pyralis (Photinus pyralis, UniProt P08659); type: biochemical
T6 construct: wild type, no tag

[20] = pH 7.8, LH2 saturating, read-out: Km Mg-ATP
[21] = read-out: Km Mg-ATP, pH 7.8, LH2 saturating

T1 sequence (P08659 whole entry T214A/A215L/I232A/V241I/G246A/F250S/F295L/E354K, the tested form may be a part): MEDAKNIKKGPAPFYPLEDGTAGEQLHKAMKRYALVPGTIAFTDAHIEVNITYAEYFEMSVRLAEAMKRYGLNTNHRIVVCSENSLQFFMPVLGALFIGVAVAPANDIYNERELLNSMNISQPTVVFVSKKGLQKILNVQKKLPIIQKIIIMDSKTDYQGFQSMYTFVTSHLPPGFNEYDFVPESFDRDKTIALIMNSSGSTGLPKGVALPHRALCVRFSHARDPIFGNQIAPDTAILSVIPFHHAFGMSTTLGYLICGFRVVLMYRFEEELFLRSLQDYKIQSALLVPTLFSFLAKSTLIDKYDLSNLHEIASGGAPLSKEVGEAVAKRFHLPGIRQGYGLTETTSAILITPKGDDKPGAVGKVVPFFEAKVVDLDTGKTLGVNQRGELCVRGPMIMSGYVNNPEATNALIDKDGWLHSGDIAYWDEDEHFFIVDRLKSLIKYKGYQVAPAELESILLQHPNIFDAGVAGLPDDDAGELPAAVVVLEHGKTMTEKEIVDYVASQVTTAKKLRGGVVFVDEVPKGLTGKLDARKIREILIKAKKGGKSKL
Photinus pyralis luciferase, recombinant wild type (PpyWT), SEQ ID NO: 4, with N-terminal peptide GPLGS, sequence (P08659 whole entry): as the sequence (P08659 whole entry T214A/A215L/I232A/V241I/G246A/F250S/F295L/E354K, the tested form may be a part) above, with A214T, L215A, A232I, I241V, A246G, S250F, L295F, K354E counted along it
T6 sequence (P08659 whole entry): as the sequence (P08659 whole entry T214A/A215L/I232A/V241I/G246A/F250S/F295L/E354K, the tested form may be a part) above, with A214T, L215A, A232I, I241V, A246G, S250F, L295F, K354E counted along it
T5 sequence (P08659 whole entry I457V/A482G/H489K/A503N/K543Q, the tested form may be a part): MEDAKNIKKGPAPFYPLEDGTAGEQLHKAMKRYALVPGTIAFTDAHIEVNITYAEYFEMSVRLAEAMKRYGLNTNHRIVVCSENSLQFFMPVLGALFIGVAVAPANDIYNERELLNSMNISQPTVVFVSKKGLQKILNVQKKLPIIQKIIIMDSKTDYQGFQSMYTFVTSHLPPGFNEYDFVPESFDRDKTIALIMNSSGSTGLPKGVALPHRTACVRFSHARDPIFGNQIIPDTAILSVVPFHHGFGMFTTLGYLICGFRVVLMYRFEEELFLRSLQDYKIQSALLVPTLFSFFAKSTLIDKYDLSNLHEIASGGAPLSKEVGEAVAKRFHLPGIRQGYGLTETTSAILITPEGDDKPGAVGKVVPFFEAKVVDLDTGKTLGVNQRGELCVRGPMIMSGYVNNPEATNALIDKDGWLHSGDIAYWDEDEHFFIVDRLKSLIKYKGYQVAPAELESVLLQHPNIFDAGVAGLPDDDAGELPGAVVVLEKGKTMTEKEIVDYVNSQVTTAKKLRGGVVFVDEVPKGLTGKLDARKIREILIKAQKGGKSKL
T4 sequence (P08659 whole entry T214A/A215L/I232A/S284T/F295L/I351V/E354K/I457V/A482G/H489K/A503N/K543Q, the tested form may be a part): as the sequence (P08659 whole entry I457V/A482G/H489K/A503N/K543Q, the tested form may be a part) above, with T214A, A215L, I232A, S284T, F295L, I351V, E354K counted along it
T2 sequence (P08659 whole entry T214A/A215L/I232A/S284T/F295L/R330G/I351V/E354I/I457V/A482G/H489K/A503N/K543Q, the tested form may be a part): as the sequence (P08659 whole entry I457V/A482G/H489K/A503N/K543Q, the tested form may be a part) above, with T214A, A215L, I232A, S284T, F295L, R330G, I351V, E354I counted along it

For `Nc1ncnc2c1ncn2[C@@H]1O[C@H](COP(=O)(O)OP(=O)(O)OP(=O)(O)O)[C@@H](O)[C@H]1O` [Mg-ATP], the kcat/Km ([1]; kcat divided by Mg-ATP Km) was 1670 ± 140 M⁻¹ s⁻¹, the Km [1, 20] was 60 ± 6 µM and the kcat/Km ([2]; kcat divided by Mg-ATP Km) was 1360 ± 140 M⁻¹ s⁻¹. For the same molecule, the Km [2, 20] was 95 ± 9 µM, the kcat/Km ([3]; kcat divided by Mg-ATP Km) was 3090 ± 90 M⁻¹ s⁻¹ and the Km [3, 20] was 94 ± 8 µM. For the same molecule, the kcat/Km ([4]; kcat divided by Mg-ATP Km) was 3750 ± 150 M⁻¹ s⁻¹, the Km [4, 20] was 80 ± 10 µM and the kcat/Km ([5]; kcat divided by Mg-ATP Km) was 170 ± 70 M⁻¹ s⁻¹. For the same molecule, the Km [5, 20] was 466 ± 36 µM, the “enhanced catalytic efficiency (kcat/Km ATP)” value ([6]; compared to PpyWT) was 2.9 fold and the kcat/Km ([6]; kcat divided by Mg-ATP Km) was 6040 ± 120 M⁻¹ s⁻¹. It also gave a Km [6, 20] of 53 ± 5 µM, a kcat/Km ([7]; kcat divided by Mg-ATP Km) of 3290 ± 100 M⁻¹ s⁻¹ and a Km [7, 20] of 76 ± 4 µM. It also gave a kcat/Km ([8]; kcat divided by Mg-ATP Km) of 1120 ± 150 M⁻¹ s⁻¹, a Km [8, 20] of 89 ± 10 µM and a kcat/Km ([9]; kcat divided by Mg-ATP Km) of 1860 ± 120 M⁻¹ s⁻¹. It also gave a Km [9, 20] of 129 ± 14 µM, a kcat/Km ([10]; kcat divided by Mg-ATP Km) of 1130 ± 120 M⁻¹ s⁻¹ and a Km [10, 20] of 79 ± 9 µM. The kcat/Km ([11]; kcat divided by Mg-ATP Km) was 3430 ± 100 M⁻¹ s⁻¹, the Km [11, 20] was 99 ± 6 µM and the kcat/Km ([12]; kcat divided by Mg-ATP Km) was 1180 ± 60 M⁻¹ s⁻¹. The Km [12, 20] was 188 ± 10 µM, the kcat/Km ([13]; kcat divided by Mg-ATP Km) was 500 ± 100 M⁻¹ s⁻¹ and the Km [13, 21] was 163 ± 16 µM. It also gave a kcat/Km ([14]; kcat divided by Mg-ATP Km) of 380 ± 100 M⁻¹ s⁻¹, a Km [14, 21] of 289 ± 20 µM and a kcat/Km ([15]; kcat divided by Mg-ATP Km) of 5990 ± 110 M⁻¹ s⁻¹. For the same molecule, the Km [15, 21] was 50 ± 5 µM, the kcat/Km ([16]; kcat divided by Mg-ATP Km) was 2090 ± 100 M⁻¹ s⁻¹ and the Km [16, 20] was 86 ± 7 µM. The kcat/Km ([17]; kcat divided by Mg-ATP Km) was 1290 ± 140 M⁻¹ s⁻¹, the Km [17, 21] was 93 ± 19 µM and the kcat/Km ([18]; kcat divided by Mg-ATP Km) was 4310 ± 120 M⁻¹ s⁻¹. For the same molecule, the Km [18, 21] was 72 ± 7 µM, the kcat/Km ([19]; kcat divided by Mg-ATP Km) was 1890 ± 130 M⁻¹ s⁻¹ and the Km [19, 20] was 90 ± 10 µM.
